Data: patent US7173022B2, “Bicyclic heterocycles as HIV integrase inhibitors” (priority 2004, dated 2007)

Target: T1, HIV-integrase (Human immunodeficiency virus type 1 group M subtype B, UniProt P12497)
T1 construct: Recombinant integrase (0.26 ng) was incubated with the beads
Assay: HIV-Integrase Inhibition Activity (SPA bead strand transfer assay)
Type: biochemical
Conditions: recombinant integrase, biotin labeled substrate DNA on SPA beads, P33 labeled target DNA
Experimental: HIV-Integrase InhibitionActivity. To evaluate in-vitro activity against HIV-integrase, 5 pmole of biotin labeled substrate DNA was bound to 100 μg of Streptavidin coated PVT SPA beads (Amersham Pharmacia Biotech). Recombinant integrase (0.26 ng) was incubated with the beads for 90 min at 37° C. Unbound enzyme was removed by washing the complex followed by addition of inhibitors and 0.1 fmol of P33 labeled target DNA. The reaction was stopped by adding EDTA to a final concentration of 10 mM. Samples were counted in TopCountNXT (Packard) and the CPM was used as a measure of integration. The reaction condition was as described in A. Engelman and R. Craigie, J. Virol 69, 5908–5911 (1995). The sequences of substrate and target DNA were described in Nucleic Acid Research 22, 1121–1122 (1994).

Structure (SMILES) | IC50
CNC(=O)c1cc(F)ccc1CNC(=O)c1nc2n(c(=O)c1O)CCC2(C)C [Example 2, N-(4-Fluoro-2-(methylcarbamoyl)benzyl)-3-hydroxy-8,8-dimethyl-4-oxo-4,6,7,8-tetrahydropyrrolo[1,2-a]pyrimidine-2-carboxamide] | 10 to 49000 nM
CNC(=O)c1cc(F)ccc1CNC(=O)c1nc2n(c(=O)c1O)CCC=C2c1ccccc1 [Example 9, N-(4-Fluoro-2-(methylcarbamoyl)benzyl)-3-hydroxy-4-oxo-9-phenyl-6,7-dihydro-4H-pyrido[1,2-a]pyrimidine-2-carboxamide] | 2 to 9 nM
O=C(NCc1ccc(F)cc1)c1nc2n(c(=O)c1O)CCC=C2c1cccnc1 [Example 10, N-(4-Fluorobenzyl)-3-hydroxy-4-oxo-9-(pyridin-3-yl)-6,7-dihydro-4H-pyrido[1,2-a]pyrimidine-2-carboxamide] | 2 to 9 nM
O=C(NCc1ccc(F)cc1)c1nc2n(c(=O)c1O)CCC=C2c1ccccc1 [Example 8, N-(4-Fluorobenzyl)-3-hydroxy-4-oxo-9-phenyl-6,7-dihydro-4H-pyrido[1,2-a]pyrimidine-2-carboxamide] | 2 to 9 nM
CC1(C)CCn2c1nc(C(=O)NCc1ccc(F)cc1)c(O)c2=O [Example 1, N-(4-Fluorobenzyl)-3-hydroxy-8,8-dimethyl-4-oxo-4,6,7,8-tetrahydropyrrolo[1,2-a]pyrimidine-2-carboxamide] | 2 to 9 nM
CC1(C)CCCn2c1nc(C(=O)NCc1ccc(F)cc1-n1cncn1)c(O)c2=O [Example 6, N-(4-Fluoro-2-(1H-1,2,4-triazol-1-yl)benzyl)-3-hydroxy-9,9-dimethyl-4-oxo-6,7,8,9-tetrahydro-4H-pyrido[1,2-a]pyrimidine-2-carboxamide] | 2 to 9 nM
CNC(=O)c1cc(F)ccc1CNC(=O)c1nc2n(c(=O)c1O)CCCC2(C)C [Example 5, N-(4-Fluoro-2-(methylcarbamoyl)benzyl)-3-hydroxy-9,9-dimethyl-4-oxo-6,7,8,9-tetrahydro-4H-pyrido[1,2-a]pyrimidine-2-carboxamide] | 2 to 9 nM
CC1(C)CCn2c1nc(C(=O)NCc1ccc(F)cc1-n1cncn1)c(O)c2=O [Example 3, N-(4-fluoro-2-(1H-1,2,4-triazol-1-yl)benzyl)-3-hydroxy-8,8-dimethyl-4-oxo-4,6,7,8-tetrahydropyrrolo[1,2-a]pyrimidine-2-carboxamide] | 2 to 9 nM
CC1(C)CCCn2c1nc(C(=O)NCc1ccc(F)cc1)c(O)c2=O [Example 4, 3-Hydroxy-9,9-dimethyl-4-oxo-6,7,8,9-tetrahydro-4H-pyrido[1,2-a]pyrimidine-2-carboxylic acid 4-fluoro-benzylamide] | 2 to 9 nM
O=C(NCc1ccc(Cl)c(Cl)c1)c1nc2n(c(=O)c1O)CCC=C2c1ccccc1 [Example 7, N-(3,4-Dichlorobenzyl)-3-hydroxy-4-oxo-9-phenyl-6,7-dihydro-4H-pyrido[1,2-a]pyrimidine-2-carboxamide] | 2 to 9 nM
CC1(C)CCCCn2c1nc(C(=O)NCc1ccc(F)cc1)c(O)c2=O [Example 12, N-(4-Fluorobenzyl)-3-hydroxy-10,10-dimethyl-4-oxo-4,6,7,8,9,10-hexahydropyrimido[1,2-a]azepine-2-carboxamide] | 2 to 9 nM
CC1(C)CCCCn2c1nc(C(=O)NCc1ccc(F)cc1-n1cncn1)c(O)c2=O [Example 13, N-(4-Fluoro-2-(1H-1,2,4-triazol-1-yl)benzyl)-3-hydroxy-10,10-dimethyl-4-oxo-4,6,7,8,9,10-hexahydropyrimido[1,2-a]azepine-2-carboxamide] | 2 to 9 nM
CNC(=O)c1cc(F)ccc1CNC(=O)c1nc2n(c(=O)c1O)CCC=C2c1cccnc1 [Example 11, N-(4-Fluoro-2-(methylcarbamoyl)benzyl)-3-hydroxy-4-oxo-9-(pyridin-3-yl)-6,7-dihydro-4H-pyrido[1,2-a]pyrimidine-2-carboxamide] | 2 to 9 nM
